Experiments:
[1] = Radioligand binding assay using antibody and [3H]-cocaine; settings: [3H]-cocaine radioligand binding; read-out: dissociation constant (Kd) for cocaine
Text: (§1) In another embodiment, an antibody binds cocaine or a derivative thereof. […] Other examples of cocaine derivatives include: (−) cocaine; cocaine propyl ester; RTI-128; RTI-66; RTI-160; RTI-192; m-hydroxycocaine; WIN 35,065-2; WIN 35,428; RTI-31; RTI-32; RTI-55; RTI-111; m-hydroxybenzoylecgonine; p-hydroxybenzoylecgonine; RTI-113; tropine; benztropine; 4′,4″-difluoro-3α-diphenylmethoxytropane; hyoscyamine-N-oxide; methylanisotropine; tropisetronmethiodide; anisodine; scopotamine; scopotamine-N-oxide; methylscopolamine; N-butylscopolamine; (−) pseudococaine; (+) cocaine; norcaine; benzoylnorecgonine; (+) pseudococaine; ecgonidine; exo-6-hydroxytropinone; and methylcocaethylene.

[2] = 2E2 in vivo pharmacokinetics, blood mAb by ELISA; settings: mice
Protocol: Then at varying times, to obtain blood samples for mAb quantification, the mice are anesthetized using isoflurane and a sterile 27-gauge hypodermic needle or, alternatively, a sterile scalpel blade is used to puncture or make a small cut in a tail vein and 10 μl of blood is collected using a heparinized capillary pipette tip. The blood is immediately placed in a 1.5 ml polypropylene microcentrifuge tube containing 40 μl of 0.1 M sodium citrate/0.1% sodium azide pH 4.75. These samples are then rapidly placed on ice and then stored at 4° C. until use.
Briefly, the conjugate benzoylecgonine-ovalbumin (3 μg/ml, 100 μl/well) in 1 mM EGTA pH 7.4 is adsorbed onto PVC 96-well microtiter plates for 1 hr. The plates are then washed 3 times with, and all wells exposed for 10 min to, 0.5% BSA in TBS (10 mM Tris, 140 mM NaCl and 0.02% NaN3, pH 6.9) in order to block non-specific protein binding. The second layer, 100 μl/well of the blood samples diluted (1:500) into BSA-TBS, is added and the sample is incubated for 2 hr. […] The plates are washed with a Solution A, containing 0.5% BSA, 10 mM sodium phosphate, 145 mM NaCl, 1.5 mM MgCl2, 0.05% triton X-100 and 0.02% NaN3, pH 7.2. Then 50 μl/well of affinity-purified biotinylated goat anti-human IgG diluted 1:500 in Solution A is added and incubated for 1 hr. After washing, 50 μl/well of streptavidin-alkaline phosphatase, diluted (1:200) in Solution A, is added, incubated for 1 hr and removed. Then 50 μl/well of the colorimetric reaction mixture, comprised of the substrate para-nitrophenylphosphate (1 mg/ml) in substrate buffer (50 mM Na2CO3, 50 mM NaHCO3 1 mM MgCl2 at pH 9.8), is added. After 6-8 min the reaction is stopped with 1M sodium hydroxide (50 μl/well). […] The reaction endpoint is measured with an ELISA reader at a wavelength of 405 nm. […]
The program provides Akaike Information Criterion (AIC) and Schwartz Bayesian Criterion (SBC) measures of “goodness of fit” of the data to the one or two compartment pharmacokinetic models that are used. Data are first analyzed according to a single compartment pharmacokinetic model.

[3] = Effect of infused mAbs on plasma and brain cocaine concentrations and pharmacokinetics; format: in vivo, mice
[4] = Effect of 2E2 on cocaine metabolite concentrations in plasma and brain; format: in vivo; settings: mice
[5] = target: anti-cocaine antibody (present antibodies); test: Competition assays with constant [3H]-cocaine and nonradioactive competitors at the antibody; settings: competition with [3H]-cocaine at antibody; read-out: binding inhibition constant (Ki)
Text: as §1

[6] = Cocaine pharmacokinetics in plasma and brain (GC/MS), absence of mAb; settings: for mean metabolite concentration in brain / mean metabolite concentration in plasma: 5 min after cocaine injection
Protocol: Jugular vein catheterized male Swiss-Webster mice (22-28 g at the start of the studies) are purchased. Mice are housed individually with free access to food and water and kept on a 12 h light/dark cycle.
The antibody (3-5 mg/ml) in phosphate-buffered saline (PBS) or vehicle (PBS) is infused at a rate of approximately 0.35 ml/min for up to two min, depending on the antibody concentration and the body weight of the animal, with the animal held under mild restraint. One hour after completion of the infusion of mAb, cocaine HCl (0.56 mg/kg) plus heparin (400 units/kg) is injected intravenously through the same catheter at a volume of 4.0 ml/kg body weight. At most sampling times, sodium pentobarbital (45 mg/kg, i.p) is administered three minutes prior to sacrificing the animal. For the 0.75 min time point the cocaine is injected into anesthetized mice. At the designated times after the injection of cocaine, anesthetized mice are sacrificed by decapitation and trunk blood (typically 0.8-1.2 ml) is collected in a 1.5 ml polypropylene microcentrifuge tube containing 11.2 μl heparin (1.0 unit/μl) and NaF (16 mg/0.8 ml of blood) to inhibit, respectively, blood coagulation and enzymatic hydrolysis of cocaine. The blood samples are centrifuged at 5,000×g for 3 min, then the plasma (typically 0.4-0.8 ml) is carefully separated from packed red blood cells, placed into sterile 1.5 ml Eppendorf microcentrifuge tubes, rapidly frozen on dry ice and then stored at −80° C. until analysis.
The whole brain is quickly removed from the decapitated mice, surface blood is blotted away, and the brain is placed in a polypropylene tube, rapidly frozen on dry ice and then stored at −80° C. until analysis. For analysis, brains are weighed and cold deionized, distilled water added to produce a total volume of 1 ml, then homogenized and centrifuged at 13,000 rpm for 45 min at 4° C. The resulting supernatants (0.4-0.6 ml) are collected into sterile polypropylene microcentrifuge tubes and an aliquot (0.05-0.40 ml) is processed for cocaine/metabolite analysis by GC/MS and hemoglobin content. Any remaining sample is stored at −80° C.
In order to determine in vivo concentrations of cocaine and its metabolites BE and EME, following the i.v. injection of cocaine, 100-400 μl samples of heparinized/NaF treated plasma and 400 μl samples of brain homogenates obtained from cocaine-treated animals are added to 2 ml of 0.1 M Na phosphate buffer, pH 6.0. This is followed by the addition of 5% trichloroacetic acid at a volume equal to that of the experimental sample (100-400 μl). These mixtures are shaken for 20 minutes and then centrifuged for 15 min at 7000 rpm, all at room temperature, in order to precipitate the denatured protein. The supernatants are collected and adjusted to pH 5.4 with 10 M NaOH. Then to serve as internal standards for establishing the identification of cocaine and its metabolites as well as for normalization of the recovery of cocaine/metabolites from the mouse samples, 50 μl of a sample containing deuterated (D3) cocaine-D3, BE-D3 and EME-D3 (each at 1 μg/ml) is added to all of the experimental and the standard control samples before their undergoing solid-phase extraction/column elution. Duplicate, standard control tubes (2 ml) are also prepared containing; 0.1 M Na phosphate buffer, 50 μl of the internal standards D3 cocaine/BE/EME (1 μg/ml, each), 200 μl of normal mouse plasma and varying amounts of cocaine (1-500 ng) and used to generate the standard cocaine concentration curves. Similarly, standard concentration curves are also generated for BE and EME.

[7] = mice, 5 min after i.v. cocaine, stoichiometric mAb dose

2E2: anti-cocaine mAb with human gamma heavy chain (SEQ ID NO: 2) and murine lambda light chain (SEQ ID NO: 1)
Kd [1]: 4 nM
elimination t1/2 of 2E2 in blood ([2]; 120 mg/kg i.v. infusion, single compartment model): 194 h
initial blood concentration of mAb (mean±SEM) ([2]; 120 mg/kg i.v., 3 minutes after infusion, n=8): 370 ± 17 µg/mL
mean blood concentration of 2E2 ([2]; 120 mg/kg i.v., 24 hours after infusion): 422 ± 21 µg/mL
brain cocaine concentration at highest mAb dose ([3]; mice, 360 mg/kg (3:1 mAb:drug), corrected for residual blood): negligible
increase in plasma cocaine concentrations ([3]; mice, 2E2 12 mg/kg (1:10 mAb:cocaine), 5 min): 5.1 fold
decrease in brain cocaine concentrations ([3]; mice, 2E2 24 mg/kg, 5 min): 35%
peak plasma cocaine concentration, presence vs absence of 2E2 ([3]; mice, 2E2 120 mg/kg): 11.3 fold
t1/2 of cocaine in plasma in the presence of mAb ([3]; mice, 2E2 120 mg/kg (equimolar), single compartment model): 17.1 min
peak plasma cocaine concentration in the presence of 2E2 ([3]; mice, 2E2 120 mg/kg, 45 sec after cocaine […] i.v.): ~1,100 ng/ml
peak brain cocaine concentration in the presence of 2E2 ([3]; mice, 2E2 120 mg/kg, earliest sample time): ~490 ng/g
elimination t1/2 of cocaine in brain in the presence of 2E2 ([3]; mice, 2E2 120 mg/kg, single compartment model): 3.8 min
increase in plasma cocaine concentrations ([3]; mice, 2E2 360 mg/kg (3:1 ratio), 5 min): 46.1 fold
decrease in brain cocaine concentration vs vehicle controls ([3]; mice, 5 min, Table 1): ~5 fold
increase in plasma cocaine concentration vs vehicle controls ([3]; mice, 5 min, Table 1): 29 fold
Change from vehicle (brain cocaine concentration) [3, 7]: −4.8-fold
Change from vehicle (plasma cocaine concentration) [3, 7]: +28.7-fold
Vdss of cocaine in the presence of mAb ([3]; mice, equimolar dose of 2E2): 0.2 L/kg
increase in plasma cocaine AUC ([3]; mouse, in vivo): 26 fold
effect of 2E2 dose on brain EME concentrations [4]: no systematic effect
effect on brain BE concentrations ([4]; 2E2 doses above 40 mg/kg): concomitant decrease
reduction in plasma EME concentrations ([4]; highest dose of 2E2): ~2 fold
increase in plasma BE concentrations ([4]; increasing doses of 2E2, plateau above 40 mg/kg): ~3 fold

CN1[C@H]2CC[C@@H]1[C@@H](C(=O)O)[C@@H](OC(=O)c1ccccc1)C2 [benzoylecgonine]
Ki [5]: 43 nM
mean metabolite concentration in brain ([6]; mice, absence of 2E2): 16 ng/g
mean metabolite concentration in plasma ([6]; mice, absence of 2E2): 7 ng/mL

CCOC(=O)[C@@H]1C2CCC(C[C@@H]1OC(=O)c1ccccc1)N2C (stereo partly shown) [cocaethylene]
Ki [5]: 3.4 nM

COC(=O)[C@H]1[C@@H](OC(=O)c2ccccc2)C[C@@H]2CC[C@H]1N2C [cocaine]
half-life ([6]; male, Swiss-Webster, mouse, brain, iv, […], t1/2 for entry (input) of cocaine into the brain, mice, absence of 2E2): 2 min
Vd ([6]; male, Swiss-Webster, mouse, plasma, iv, […]): 6 L/kg
half-life ([6]; male, Swiss-Webster, mouse, plasma, iv, […], plasma distribution half-life (t1/2α) of cocaine, mice, cocaine HCl […] i.v., absence of 2E2, two-compartment model): 1.9 min
half-life ([6]; male, Swiss-Webster, mouse, plasma, iv, […], plasma terminal elimination half-life (t1/2β) of cocaine, mice, cocaine HCl […] i.v., absence of 2E2, two-compartment model): 26.1 min
plasma terminal elimination half-life (t1/2β) of cocaine ([6]; mice, cocaine HCl […] i.v., absence of 2E2, two-compartment model): 26 min
brain t1/2α of cocaine ([6]; mice, i.v., absence of 2E2, two-compartment model): 2.0 min
highest measured brain cocaine concentration ([6]; mice, i.v., at 3 min, absence of 2E2): ~1,500 ng/g
highest plasma cocaine concentration ([6]; mice, i.v., earliest sample time (45 sec), absence of 2E2): ~110 ng/mL
brain t1/2β of cocaine ([6]; mouse, in vivo, iv): 14.5 min

COC(=O)[C@@H]1[C@H]2CC[C@@H](C[C@@H]1O)N2C [ecgonine methyl ester]
Ki [5]: 5200 nM
mean metabolite concentration in brain ([6]; mice, absence of 2E2): 267 ng/g
mean metabolite concentration in plasma ([6]; mice, absence of 2E2): 25 ng/mL

CN1[C@H]2CC[C@@H]1[C@@H](C(=O)O)[C@@H](O)C2 [ecogonine]
Ki [5]: 95000 nM
